Results published in ChEMBL document CHEMBL5356977, “Exploration of macrocyclic peptide binders to the extracellular CRD domain of human receptor tyrosine kinase-like orphan receptor 1 (ROR1)” (Bioorg Med Chem Lett, 2024).
Blank lines part the entries; values can stand above or below the compound they belong to. Active and inactive are the calls of the source. No cut-off for these calls is given here. Bridge positions count the residues as written; N and C are the ends. Square brackets hold non-standard residues; d marks the D form. Peptide text beside a SMILES is read from it. * marks the point of attachment. X2 = CCCN(C(=O)[C@@H](NC(=O)[C@H]1CCCCN1C)[C@@H](C)CC)[C@H](C[C@@H](OC(C)=O)c1nc(C(=O)N[C@@H](Cc2ccc(NC(=O)[C@H](CCCNC(N)=O)NC(=O)[C@@H](NC(=O)CCCCCN3C(=O)CC(*)C3=O)C(C)C)cc2)C[C@H](C)C(=O)O)cs1)C(C)C; Bip = N[C@@H](Cc1ccc(-c2ccccc2)cc1)C(=O)O; NMeF = CN[C@@H](Cc1ccccc1)C(=O)O; Sar = CNCC(=O)O

What was measured:
786-0 = test: Antiproliferative activity in human 786-0 cells; assay type: functional, cell-based
ASPC1 = test: Antiproliferative activity in human ASPC1 cells; assay type: functional, cell-based
JeKo-1 = test: Antiproliferative activity in human JeKo-1 cells; assay type: functional, cell-based
HEK293 = test: Antiproliferative activity in HEK293 cells harbouring ROR1; assay type: toxicity, cell-based; conditions: Homo sapiens
[1] = target: T1, Inactive tyrosine-protein kinase transmembrane receptor ROR1 (Homo sapiens, UniProt Q01973); test: Binding affinity to human ROR1 expressed in HEK293 cells by cell based assay
[2] = […] stability in mouse serum assessed as half life; assay type: ADME, cell-free
[3] = target: T1, Inactive tyrosine-protein kinase transmembrane receptor ROR1; test: Induction of ROR1 internalization in human 786-0 cells at 4 to 37 degreeC; assay type: cell-based
[4] = target: T1, Inactive tyrosine-protein kinase transmembrane receptor ROR1; test: Binding affinity to human ROR1 harbouring CRD domain at 100 nM relative to control
[5] = target: T1, Inactive tyrosine-protein kinase transmembrane receptor ROR1; test: Binding affinity to full length human His-tagged ROR1 (937 residues ) assessed as dissociation constant by SPR analysis
[6] = target: Tyrosine-protein kinase transmembrane receptor ROR2 (Homo sapiens, UniProt Q01974); test: Binding affinity to full length human His-tagged ROR2 (943 residues ) assessed as dissociation constant by SPR analysis
[7] = Stability in mouse serum assessed as half life; assay type: ADME, cell-free
[8] = Stability in human serum assessed as half life; assay type: ADME, cell-free
[9] = target: T1, Inactive tyrosine-protein kinase transmembrane receptor ROR1; test: Binding affinity to human ROR1 harbouring IGt2 domain at 100 nM relative to control
[10] = target: T1, Inactive tyrosine-protein kinase transmembrane receptor ROR1; test: Induction of ROR1 internalization in human 786-0; assay type: cell-based
[11] = target: T1, Inactive tyrosine-protein kinase transmembrane receptor ROR1; test: Induction of ROR1 internalization in human MDA-MB-231; assay type: cell-based

T1 sequence (Q01973 whole entry): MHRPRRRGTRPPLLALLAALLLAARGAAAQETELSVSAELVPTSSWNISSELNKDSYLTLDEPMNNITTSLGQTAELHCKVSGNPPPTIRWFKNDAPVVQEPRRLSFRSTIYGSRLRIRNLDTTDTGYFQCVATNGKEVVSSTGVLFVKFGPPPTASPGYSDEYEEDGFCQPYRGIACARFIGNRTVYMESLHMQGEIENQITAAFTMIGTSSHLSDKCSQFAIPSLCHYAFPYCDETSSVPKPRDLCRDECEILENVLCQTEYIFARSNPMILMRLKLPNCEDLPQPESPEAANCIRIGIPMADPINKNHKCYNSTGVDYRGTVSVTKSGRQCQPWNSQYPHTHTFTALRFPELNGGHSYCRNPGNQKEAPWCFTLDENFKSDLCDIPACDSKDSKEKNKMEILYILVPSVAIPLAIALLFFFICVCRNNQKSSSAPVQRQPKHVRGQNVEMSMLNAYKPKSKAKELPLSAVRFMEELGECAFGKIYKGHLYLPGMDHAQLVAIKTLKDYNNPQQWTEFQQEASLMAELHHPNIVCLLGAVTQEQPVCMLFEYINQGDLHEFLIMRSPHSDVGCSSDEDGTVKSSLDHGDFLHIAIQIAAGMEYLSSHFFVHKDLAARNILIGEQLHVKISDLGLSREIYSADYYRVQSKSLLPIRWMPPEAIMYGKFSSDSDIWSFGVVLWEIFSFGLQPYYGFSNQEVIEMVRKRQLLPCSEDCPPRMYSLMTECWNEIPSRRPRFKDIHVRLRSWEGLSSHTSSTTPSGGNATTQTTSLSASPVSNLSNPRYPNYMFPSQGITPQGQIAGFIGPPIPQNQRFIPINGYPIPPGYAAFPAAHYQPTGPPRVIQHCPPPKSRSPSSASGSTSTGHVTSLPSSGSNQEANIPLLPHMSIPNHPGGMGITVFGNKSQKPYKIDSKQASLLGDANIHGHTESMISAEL
Tyrosine-protein kinase transmembrane receptor ROR2, sequence (Q01974 whole entry): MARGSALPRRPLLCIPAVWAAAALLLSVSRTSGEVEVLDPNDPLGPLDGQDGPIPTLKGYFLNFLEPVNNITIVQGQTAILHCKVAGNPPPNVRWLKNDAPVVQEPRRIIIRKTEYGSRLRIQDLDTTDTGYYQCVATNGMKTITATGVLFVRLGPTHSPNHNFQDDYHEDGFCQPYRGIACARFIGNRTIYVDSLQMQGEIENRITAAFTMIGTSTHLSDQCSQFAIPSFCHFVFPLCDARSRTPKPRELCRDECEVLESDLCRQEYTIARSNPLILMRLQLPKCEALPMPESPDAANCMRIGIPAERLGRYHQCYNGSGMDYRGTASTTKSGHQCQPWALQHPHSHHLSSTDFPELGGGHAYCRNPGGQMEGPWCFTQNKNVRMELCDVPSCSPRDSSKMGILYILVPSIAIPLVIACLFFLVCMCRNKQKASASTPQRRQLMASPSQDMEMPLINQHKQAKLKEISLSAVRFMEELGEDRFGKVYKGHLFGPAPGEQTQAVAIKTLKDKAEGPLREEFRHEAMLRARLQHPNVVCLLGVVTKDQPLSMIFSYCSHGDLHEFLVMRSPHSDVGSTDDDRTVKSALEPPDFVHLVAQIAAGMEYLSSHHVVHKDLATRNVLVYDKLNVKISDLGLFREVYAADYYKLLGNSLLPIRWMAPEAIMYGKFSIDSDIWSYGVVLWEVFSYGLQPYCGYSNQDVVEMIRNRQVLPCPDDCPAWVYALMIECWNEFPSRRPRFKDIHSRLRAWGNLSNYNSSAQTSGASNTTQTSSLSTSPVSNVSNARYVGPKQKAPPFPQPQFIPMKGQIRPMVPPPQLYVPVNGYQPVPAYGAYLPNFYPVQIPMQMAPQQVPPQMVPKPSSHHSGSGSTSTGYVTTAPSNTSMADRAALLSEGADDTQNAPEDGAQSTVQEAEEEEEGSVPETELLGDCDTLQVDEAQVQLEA

Structure (SMILES): CC(C)C[C@@H]1NC(=O)[C@H](Cc2ccc(O)cc2)NC(=O)[C@H](Cc2ccccc2)NC(=O)CSC[C@@H](C(=O)NCC(=O)NCC(=O)NCC(=O)NCC(=O)O)NC(=O)[C@H](CC(C)C)NC(=O)[C@H](Cc2ccccc2)N(C)C(=O)[C@H](Cc2ccc(O)cc2)NC(=O)[C@H](Cc2c[nH]c3ccccc23)NC(=O)CNC(=O)[C@H](CO)NC(=O)[C@H](Cc2ccc(O)cc2)NC(=O)[C@H](C(C)C)NC1=O ({CH2CO}-FYLVYSGWY[NMeF]LCGGGG-OH; thioether N-12)
- EC50 (786-0): 63.7 nM
- EC50 (ASPC1): 76.6 nM
- EC50 (JeKo-1): 89 nM
- EC50 (HEK293): 55.3 nM

Structure (SMILES): CCCN(C(=O)[C@@H](NC(=O)[C@H]1CCCCN1C)[C@@H](C)CC)[C@H](C[C@@H](OC(C)=O)c1nc(C(=O)N[C@@H](Cc2ccc(NC(=O)[C@H](CCCNC(N)=O)NC(=O)[C@@H](NC(=O)CCCCCN3C(=O)CC(SC[C@H](NC(=O)CNC(=O)CNC(=O)CNC(=O)CNC(=O)[C@@H]4CSCC(=O)N[C@@H](Cc5ccccc5)C(=O)N[C@@H](Cc5ccc(O)cc5)C(=O)N[C@@H](CC(C)C)C(=O)N[C@@H](C(C)C)C(=O)N[C@@H](Cc5ccc(O)cc5)C(=O)N[C@@H](CO)C(=O)NCC(=O)N[C@@H](Cc5c[nH]c6ccccc56)C(=O)N[C@@H](Cc5ccc(O)cc5)C(=O)N(C)[C@@H](Cc5ccccc5)C(=O)N[C@@H](CC(C)C)C(=O)N4)C(N)=O)C3=O)C(C)C)cc2)C[C@H](C)C(=O)O)cs1)C(C)C (stereo partly drawn) ({CH2CO}-FYLVYSGWY[NMeF]LCGGGGC(X2)-NH2; thioether N-12)
- EC50 (786-0): 154 nM
- EC50 (ASPC1): 145 nM
- EC50 (JeKo-1): 334 nM
- EC50 (HEK293): 27.3 nM

Structure (SMILES): CC(C)C[C@@H]1NC(=O)[C@H](Cc2ccccc2)N(C)C(=O)[C@H](Cc2ccc(O)cc2)NC(=O)[C@H](Cc2c[nH]c3ccccc23)NC(=O)CNC(=O)[C@H](CO)NC(=O)[C@H](Cc2ccc(O)cc2)NC(=O)[C@H](C(C)C)NC(=O)[C@@H]2CCCN2C(=O)[C@H](Cc2ccc(O)cc2)NC(=O)[C@H](Cc2ccccc2)NC(=O)CSC[C@@H](C(=O)NCC(N)=O)NC1=O ({CH2CO}-FYPVYSGWY[NMeF]LCG-NH2; thioether N-12)
- IC50 [1]: 5.2 nM

Structure (SMILES): CC(C)C[C@@H]1NC(=O)[C@H](Cc2ccccc2)N(C)C(=O)[C@H](Cc2ccc(O)cc2)NC(=O)[C@H](Cc2c[nH]c3ccccc23)NC(=O)CNC(=O)[C@H](CO)NC(=O)[C@H](Cc2ccc(O)cc2)NC(=O)[C@H](C(C)C)NC(=O)[C@H](CCCNC(=N)N)NC(=O)[C@H](Cc2ccc(O)cc2)NC(=O)[C@H](Cc2ccccc2)NC(=O)CSC[C@@H](C(=O)NCC(N)=O)NC1=O ({CH2CO}-FYRVYSGWY[NMeF]LCG-NH2; thioether N-12)
- IC50 [1]: 6.3 nM

Structure (SMILES): CC[C@H](C)[C@H](NC(=O)[C@H]1CCCCN1C)C(=O)N(COC(=O)CC(C)C)[C@H](C[C@@H](OC(C)=O)c1nc(C(=O)N[C@@H](Cc2ccc(C)cc2)C[C@H](C)C(=O)O)cs1)C(C)C [TUBULYSIN]
- EC50 (786-0): 0.57 nM

Continued, values first:

- IC50 [1]: 8.6 nM
Structure (SMILES): CC(C)C[C@@H]1NC(=O)[C@H](Cc2ccc(O)cc2)NC(=O)[C@H](Cc2ccccc2)NC(=O)CSC[C@@H](C(=O)NCC(N)=O)NC(=O)[C@H](CC(C)C)NC(=O)[C@H](Cc2ccccc2)N(C)C(=O)[C@H](Cc2ccc(O)cc2)NC(=O)[C@H](Cc2c[nH]c3ccccc23)NC(=O)CNC(=O)[C@H](Cc2ccc(O)cc2)NC(=O)[C@H](Cc2ccc(O)cc2)NC(=O)[C@H](C(C)C)NC1=O ({CH2CO}-FYLVYYGWY[NMeF]LCG-NH2; thioether N-12)

- half-life [2]: 24 h
- Activity [3]: inactive
- Activity [4]: 114%
- Kd [5]: 3 nM
- Kd [6]: > 100 nM
- half-life [7]: 0.517 h
- half-life [8]: 1.1 h
- Activity [9]: 125%
Structure (SMILES): CN1CC(=O)N[C@@H](CO)C(=O)N[C@@H](Cc2ccc(-c3ccccc3)cc2)C(=O)NCC(=O)N[C@@H](CCCNC(=N)N)C(=O)N[C@@H](CCCNC(=N)N)C(=O)N[C@@H](CCCNC(=N)N)C(=O)NCC(=O)N[C@H](C(=O)NCC(N)=O)CSCC(=O)N[C@@H](Cc2ccccc2)C(=O)N[C@@H](Cc2ccc(O)cc2)C1=O ({CH2CO}-FY[Sar]S[Bip]GRRRGCG-NH2; thioether N-11)

- Activity [10]: Active
- IC50 [1]: 2.2 nM
- Activity [11]: Active
Structure (SMILES): CC(C)C[C@@H]1NC(=O)[C@H](Cc2ccc(O)cc2)NC(=O)[C@H](Cc2c[nH]c3ccccc23)NC(=O)CSC[C@@H](C(=O)NCC(N)=O)NC(=O)[C@H](CC(C)C)NC(=O)[C@H](Cc2ccccc2)N(C)C(=O)[C@H](Cc2ccc(O)cc2)NC(=O)[C@H](Cc2c[nH]c3ccccc23)NC(=O)CNC(=O)[C@H](CO)NC(=O)[C@H](Cc2ccc(O)cc2)NC(=O)[C@H](C(C)C)NC1=O ({CH2CO}-WYLVYSGWY[NMeF]LCG-NH2; thioether N-12)
